Values after ≈ are worked out from the molar mass of the structure shown. Like-named read-outs stand apart in the source and are kept apart here.
Experiments:
Staph. aur. = test: Minimum inhibitory concentration, Staph. aur. (Gram positive); type: cell-based
Method: (§1) The minimum inhibitory concentrations (MIC) against different Gram positive and Gram negative microorganisms, and fungi, were determined and the results are shown in Table 2 below.

Ps. aer. = test: Minimum inhibitory concentration, Ps. aer. (Gram negative); type: cell-based
Method: as §1

E. Coli = test: Minimum inhibitory concentration, E. Coli (Gram negative); type: cell-based; details: Escherichia coli
Method: as §1

Strept. py. = test: Minimum inhibitory concentration, Strept. py. (Gram positive); type: cell-based
Method: as §1

Fungi = test: Minimum inhibitory concentration, Fungi; type: cell-based
Method: as §1

[1] = Solubility in Water (Table 1); type: physicochemical
Excerpt: The results in Table I below illustrates the water solubility of the free base and hydrochloride salts of the invention versus chlorhexidine.

bacterial spores = details: room temperature; cited from earlier work
[2] = cited from earlier work
[3] = cited from earlier work; remark: listed apart in the source
bacteria = details: cited from earlier work
[4] = HCl salt, pH 5.5, read-out: Solubility in water, HCl Salt (pH 5.5)
[5] = free base, pH 8.5, read-out: Solubility in water, Free Base (pH 8.5)

SMILES	MIC (Staph. aur.)	MIC (Ps. aer.)	MIC (E. Coli)	MIC (Strept. py.)	MIC (Fungi)	solubility [1, 4]	solubility [1, 5]	activity against bacterial spores (bacterial spores)	compatibility in formulations containing surface active agents [2]	water solubility for the free base [3]	antibacterial activity at low pH (bacteria; pH below 5)	antibacterial activity, pH dependence (bacteria; pH range 5-8)
N=C(NCCCCCCNC(=N)NC(=N)Nc1ccc(Cl)cc1)NC(=N)Nc1ccc(Cl)cc1 [Chlorhexidine gluconate, reference compound]	2.5 µg/mL	50 µg/mL	5 µg/mL	5 µg/mL	> 200 µg/mL	–	–	–	–	–	–	–
[H]/N=C(\N/C(=N/[H])NCCCCCCNC(=N)NC(=N)Nc1ccc(Cl)cc1)Nc1ccc(Cl)cc1 [Chlorhexidine, 1,6-bis(4-chlorophenylbiguanido)-hexane]	–	–	–	–	–	18 mg/mL	0.08 mg/mL (≈ 158 µM)	inactivity against bacterial spores	incompatability	low water solubility	deteriorates	pH dependent
N=C(NCCCCCCNC(=N)NC(=N)NCCN1CCCC1=O)NC(=N)NCCN1CCCC1=O [Ex. 4, 1,6-Bis[1-(2-Pyrrolidonylethyl)biguanido]hexane:2HCl]	≤ 100 µg/mL	250 µg/mL	250 µg/mL	≤ 50 µg/mL	100 µg/mL	500 mg/mL	50 mg/mL	–	–	–	–	–
N=C(NCCCCCCCCCCCCNC(=N)NC(=N)NCCN1CCCC1=O)NC(=N)NCCN1CCCC1=O [Ex. 5, 1,12-Bis[1-(2-Pyrrolidonylethyl)biguanido]dodecane:2HCl]	≤ 50 µg/mL	> 500 µg/mL	250 µg/mL	≤ 50 µg/mL	≤ 50 µg/mL	500 mg/mL	20 mg/mL	–	–	–	–	–
N=C(NCCOCCOCCNC(=N)NC(=N)NCCN1CCCC1=O)NC(=N)NCCN1CCCC1=O [Ex. 6, 1,2-Bis[1-(2-pyrrolidonylethyl)-5-(2-Ethoxybiguanido)]ethane:2HCl]	> 500 µg/mL	≤ 100 µg/mL	100 µg/mL	≤ 50 µg/mL	≤ 50 µg/mL	500 mg/mL	500 mg/mL	–	–	–	–	–
